Test results from patent publication US20240116985A1, “STAPLED PEPTIDES AND METHODS THEREOF” (priority 2020, published 2024).

test: CHI Log D procedure; type: physicochemical; details: pH 7.4

`CC(=O)N1CCC[C@]12CC=CCCCC1(CCCC=CCCCCCC[C@@](C)(C(=O)N[C@@H](Cc3ccc(F)c(F)c3)C(=O)N[C@@H](Cc3c[nH]c4ccccc34)C(=O)N[C@@H](CCC(N)=O)C(N)=O)NC(=O)[C@H](C(C)C)NC(=O)[C@H](Cc3ccccc3)NC(=O)[C@H](C)NC(=O)[C@H](C)NC(=O)[C@H](CC(=O)O)NC(=O)[C@H](CC(=O)O)NC1=O)NC(=O)[C@H](C)NC(=O)[C@H](CC(=O)O)NC2=O` (stereo partly drawn) [I-263, Ac-PL3-Asp-Ala-B5-Asp-Asp-Ala-Ala-Phe-Val-S8-34FF-Trp-Gln-NH2] and `CC(=O)N1CCC[C@]12CC=CCCCC1(CCCC=CCCCCCC[C@@](C)(C(=O)N[C@@H](Cc3ccccc3)C(=O)N[C@@H](Cc3c[nH]c4ccccc34)C(=O)N[C@@H](CCC(N)=O)C(N)=O)NC(=O)[C@H](C(C)C)NC(=O)[C@H](Cc3ccc(Cl)cc3)NC(=O)[C@H](C)NC(=O)[C@H](C)NC(=O)[C@H](CC(=O)O)NC(=O)[C@H](CC(=O)O)NC1=O)NC(=O)[C@H](C)NC(=O)[C@H](CC(=O)O)NC2=O` (stereo partly drawn) [I-308, Ac-PL3-Asp-Ala-B5-Asp-Asp-Ala-Ala-4C1F-Val-S8-Phe-Trp-Gln-NH2] are within 0.2 log units of each other in “CHI Log D” value: 2.128 for the first, 2.03 for the second.

`CC(=O)N1CCC[C@]12CC=CCCCC1(CCCC=CCCCCCC[C@@](C)(C(=O)N[C@@H](Cc3ccccc3)C(=O)N[C@@H](Cc3c[nH]c4ccccc34)C(=O)N[C@@H](CCC(N)=O)C(N)=O)NC(=O)[C@H](C(C)C)NC(=O)[C@H](Cc3cccc(F)c3)NC(=O)[C@H](C)NC(=O)[C@H](C)NC(=O)[C@H](CC(=O)O)NC(=O)[C@H](CC(=O)O)NC1=O)NC(=O)[C@H](C)NC(=O)[C@H](CC(=O)O)NC2=O` (stereo partly drawn) [I-264, Ac-PL3-Asp-Ala-B5-Asp-Asp-Ala-Ala-3FF-Val-S8-Phe-Trp-Gln-NH2] and `CC(=O)N1CCC[C@]12CC=CCCCC1(CCCC=CCCCCCC[C@@](C)(C(=O)N[C@@H](Cc3ccccc3)C(=O)N[C@@H](Cc3c[nH]c4ccccc34)C(=O)N[C@@H](CCC(N)=O)C(N)=O)NC(=O)[C@H](C(C)C)NC(=O)[C@H](Cc3cccc(Cl)c3)NC(=O)[C@H](C)NC(=O)[C@H](C)NC(=O)[C@H](CC(=O)O)NC(=O)[C@H](CC(=O)O)NC1=O)NC(=O)[C@H](C)NC(=O)[C@H](CC(=O)O)NC2=O` (stereo partly drawn) [I-306, Ac-PL3-Asp-Ala-B5-Asp-Asp-Ala-Ala-3C1F-Val-S8-Phe-Trp-Gln-NH2] are within 0.2 log units of each other in “CHI Log D” value: 2.011 for the first, 2.03 for the second.

Compared with `CC(=O)N1CCC[C@]12CC=CCCCC1(CCCC=CCCCCCC[C@@](C)(C(=O)N[C@@H](Cc3ccccc3)C(=O)N[C@@H](Cc3c[nH]c4ccccc34)C(=O)N[C@@H](CCC(N)=O)C(N)=O)NC(=O)[C@H](C(C)C)NC(=O)[C@H](Cc3ccccc3)NC(=O)[C@H](C)NC(=O)[C@H](C)NC(=O)[C@H](CC(=O)O)NC(=O)[C@H](CC(=O)O)NC1=O)NC(=O)[C@H](C)NC(=O)[C@H](CCC(=O)O)NC2=O` (stereo partly drawn) [I-280, Ac-PL3-Glu-Ala-B5-Asp-Asp-Ala-Ala-Phe-Val-S8-Phe-Trp-Gln-NH2], `CC(=O)N1CCC[C@]12CC=CCCCC1(CCCC=CCCCCCC[C@@](C)(C(=O)N[C@@H](Cc3ccccc3)C(=O)N[C@@H](Cc3c[nH]c4ccccc34)C(=O)N[C@@H](CCC(N)=O)C(N)=O)NC(=O)[C@H](C(C)C)NC(=O)[C@H](Cc3ccccc3)NC(=O)[C@H](C)NC(=O)[C@H](C)NC(=O)[C@H](CC(=O)O)NC(=O)[C@H](CCC(=O)O)NC1=O)NC(=O)[C@H](C)NC(=O)[C@H](CC(=O)O)NC2=O` (stereo partly drawn) [I-281, Ac-PL3-Asp-Ala-B5-Glu-Asp-Ala-Ala-Phe-Val-S8-Phe-Trp-Gln-NH2] is higher in “CHI Log D” value: 1.991 for the first, 2.2 for the second.

`CC(=O)N1CCC[C@]12CC=CCCCC1(CCCC=CCCCCCC[C@@](C)(C(=O)N[C@@H](Cc3ccccc3)C(=O)N[C@@H](Cc3c[nH]c4ccccc34)C(=O)N[C@@H](CCC(N)=O)C(N)=O)NC(=O)[C@H](C(C)C)NC(=O)[C@H](Cc3ccccc3)NC(=O)[C@H](C)NC(=O)[C@H](C)NC(=O)[C@H](CC(=O)O)NC(=O)[C@H](CCC(=O)O)NC1=O)NC(=O)[C@H](C)NC(=O)[C@H](CC(=O)O)NC2=O` (stereo partly drawn) [I-282, Ac-PL3-Asp-Ala-B5-Glu-Asp-Ala-Ala-Phe-Val-S8-Phe-Trp-Gln-NH2] and `CC(=O)N1CCC[C@]12CC=CCCCC1(CCCC=CCCCCCC[C@@](C)(C(=O)N[C@@H](Cc3ccccc3)C(=O)N[C@@H](Cc3c[nH]c4ccccc34)C(=O)N[C@@H](CCC(N)=O)C(N)=O)NC(=O)[C@H](C(C)C)NC(=O)[C@H](Cc3ccccc3)NC(=O)[C@H](C)NC(=O)[C@H](C)NC(=O)[C@H](Cc3c[nH]cn3)NC(=O)[C@H](CC(=O)O)NC1=O)NC(=O)[C@H](C)NC(=O)[C@H](CC(=O)O)NC2=O` (stereo partly drawn) [I-304, Ac-PL3-Asp-Ala-B5-Asp-His-Ala-Ala-Phe-Val-S8-Phe-Trp-Gln-NH2] are within 0.2 log units of each other in “CHI Log D” value: 2.224 for the first, 2.339 for the second.

Going from `CC[C@H](C)[C@@H]1NC(=O)[C@H](CC(=O)O)NC(=O)[C@]2(CC=CCCCC3(CCCC=CCCCCCC[C@@](C)(C(=O)N[C@@H](Cc4ccccc4)C(=O)N[C@@H](Cc4csc5ccccc45)C(=O)N[C@@H](CCC(N)=O)C(N)=O)NC(=O)[C@H](CCC(N)=O)NC(=O)[C@H](Cc4ccccc4)NC(=O)[C@H](C)NC(=O)[C@H](C)NC(=O)[C@H](CCC(=O)O)NC(=O)[C@H](CNS(=O)(=O)C(F)(F)F)NC3=O)NC1=O)CCCN2C(C)=O` (stereo partly drawn) [I-630, Ac-PL3-Asp-Ile-B5-[Tf]Dap-Glu-Ala-Ala-Phe-Gln-S8-Phe-BztA-Gln-NH2] to `CC[C@H](C)[C@@H]1NC(=O)C[C@H](CC(=O)O)NC(=O)[C@]2(CC=CCCCC3(CCCC=CCCCCCC[C@@](C)(C(=O)N[C@@H](Cc4ccccc4)C(=O)N[C@@H](Cc4csc5ccccc45)C(=O)N[C@@H](CCC(N)=O)C(N)=O)NC(=O)[C@H](CCC(N)=O)NC(=O)[C@H](Cc4ccccc4)NC(=O)[C@H](C)NC(=O)[C@H](C)NC(=O)[C@H](CCC(=O)O)NC(=O)[C@H](CC(=O)O)NC3=O)NC1=O)CCCN2C(C)=O` (stereo partly drawn) [I-670, Ac-PL3-RbGlu-Ile-B5-Asp-Glu-Ala-Ala-Phe-Gln-S8-Phe-BztA-Gln-NH2], the “CHI Log D” value falls from 4.36 to 2.16.

With `CC[C@H](C)[C@@H]1NC(=O)[C@H](CC(=O)O)NC(=O)[C@]2(CC=CCCCC3(CCCC=CCCCCCC[C@@](C)(C(=O)N[C@@H](Cc4ccccc4)C(=O)N[C@@H](Cc4csc5ccccc45)C(=O)N[C@@H](CCC(N)=O)C(N)=O)NC(=O)[C@H](CCC(N)=O)NC(=O)[C@H](Cc4ccccc4)NC(=O)[C@H](C)NC(=O)[C@H](C)NC(=O)[C@H](CCC(=O)O)NC(=O)[C@H](CNS(=O)(=O)C(F)(F)F)NC3=O)NC1=O)CCCN2C(C)=O` (stereo partly drawn) [I-631, Ac-PL3-Asp-Ile-B5-[Tf]Dap-Glu-Ala-Ala-Phe-Gln-S8-Phe-BztA-Gln-NH2] the “CHI Log D” value was 4.365.

same assay, conditions: pH 7.4, CHI Log D

Going from `CC(=O)N1CCC[C@]12CC=CCCCC1(CCCC=CCCCCCC[C@@](C)(C(=O)N[C@@H](CCc3ccc(O)cc3)C(=O)N[C@@H](Cc3c[nH]c4ccccc34)C(=O)N[C@@H](CCC(N)=O)C(N)=O)NC(=O)[C@H](C(C)C)NC(=O)[C@H](Cc3ccccc3)NC(=O)[C@H](C)NC(=O)[C@H](C)NC(=O)[C@H](CC(=O)O)NC(=O)[C@H](CC(=O)O)NC1=O)NC(=O)[C@H](C)NC(=O)[C@H](CC(=O)O)NC2=O` (stereo partly drawn) [I-269, Ac-PL3-Asp-Ala-B5-Asp-Asp-Ala-Ala-Phe-Val-S8-hTyr-Trp-Gln-NH2] to `CC(=O)N1CCC[C@]12CC=CCCCC1(CCCC=CCCCCCC[C@@](C)(C(=O)N[C@@H](Cc3ccccc3)C(=O)N[C@@H](Cc3csc4ccccc34)C(=O)N[C@@H](CCC(N)=O)C(N)=O)NC(=O)[C@H](C(C)C)NC(=O)[C@H](Cc3ccccc3)NC(=O)[C@H](C)NC(=O)[C@H](C)NC(=O)[C@H](CCc3ccccc3)NC(=O)[C@H](CC(=O)O)NC1=O)NC(=O)[C@H](C)NC(=O)[C@H](CC(=O)O)NC2=O` (stereo partly drawn) [I-301, Ac-PL3-Asp-Ala-B5-Asp-hPhe-Ala-Ala-Phe-Val-S8-Phe-BztA-Gln-NH2], the chromatographic logD rises from 1.81 to 3.26.

First: CC(=O)N1CCC[C@]12CC=CCCCC1(CCCC=CCCCCCC[C@@](C)(C(=O)N[C@@H](Cc3ccccc3)C(=O)N[C@@H](Cc3csc4ccccc34)C(=O)N[C@@H](CCC(N)=O)C(N)=O)NC(=O)[C@H](C(C)C)NC(=O)[C@H](Cc3ccccc3)NC(=O)[C@H](C)NC(=O)[C@H](C)NC(=O)[C@H](Cc3ccc4ccccc4n3)NC(=O)[C@H](CC(=O)O)NC1=O)NC(=O)[C@H](C)NC(=O)[C@H](CC(=O)O)NC2=O (stereo partly drawn) [I-300, Ac-PL3-Asp-Ala-B5-Asp-Qui-Ala-Ala-Phe-Val-S8-Phe-BztA-Gln-NH2]
Second: CC(=O)N1CCC[C@]12CC=CCCCC1(CCCC=CCCCCCC[C@@](C)(C(=O)N[C@@H](Cc3ccccc3)C(=O)N[C@@H](Cc3c[nH]c4ccccc34)C(=O)N[C@@H](CCC(N)=O)C(N)=O)NC(=O)[C@H](C(C)C)NC(=O)[C@H](Cc3ccccc3)NC(=O)[C@H](C)NC(=O)[C@H](C)NC(=O)[C@H](C(c3ccccc3)c3ccccc3)NC(=O)[C@H](CC(=O)O)NC1=O)NC(=O)[C@H](C)NC(=O)[C@H](CC(=O)O)NC2=O (stereo partly drawn) [I-303, Ac-PL3-Asp-Ala-B5-Asp-DipA-Ala-Ala-Phe-Val-S8-Phe-Trp-Gln-NH2]
The chromatographic logD of the first is lower: 2.82 for the first, 3.13 for the second.

Compound `CC(=O)N1CCC[C@]12CC=CCCCC1(CCCC=CCCCCCC[C@@](C)(C(=O)N[C@@H](Cc3c(F)c(F)c(F)c(F)c3F)C(=O)N[C@@H](Cc3csc4ccccc34)C(=O)N[C@@H](CCC(N)=O)C(N)=O)NC(=O)[C@H](C(C)C)NC(=O)[C@H](Cc3ccccc3)NC(=O)[C@H](C)NC(=O)[C@H](C)NC(=O)[C@H](CC(=O)O)NC(=O)[C@H](CC(=O)O)NC1=O)NC(=O)[C@H](C)NC(=O)[C@H](CC(=O)O)NC2=O` (stereo partly drawn) [I-302, Ac-PL3-Asp-Ala-B5-Asp-Asp-Ala-Ala-Phe-Val-S8-pff-BztA-Gln-NH2] has a chromatographic logD of 2.38.

Compound `CC(=O)N1CCC[C@]12CC=CCCCC1(CCCC=CCCCCCC[C@@](C)(C(=O)N[C@@H](Cc3ccccc3)C(=O)N[C@@H](Cc3c[nH]c4ccccc34)C(=O)N[C@@H](CO)C(N)=O)NC(=O)[C@H](CO)NC(=O)[C@H](Cc3ccccc3)NC(=O)[C@H](C)NC(=O)[C@H](C)NC(=O)[C@H](CC(=O)O)NC(=O)[C@H](CC(=O)O)NC1=O)NC(=O)[C@H](C)NC(=O)[C@H](CC(=O)O)NC2=O` (stereo partly drawn) [I-333, Ac-PL3-Asp-Ala-B5-Asp-Asp-Ala-Ala-Phe-Ser-S8-Phe-WCHO-Ser-NH2] has a logD of 2.12.
